{"source": "patent US11986659B2", "about": "“Modulation of neuronal NKCC1 as a therapeutic strategy for spasticity and related disorders” (Research Foundation of the City University of New York, priority 2018, dated 2024)", "key": {"[1]": {"system": "non-injured control animals", "assay": "Stretch response in non-injured control animals after bumetanide injection", "type": "in vivo, CD-1 mice", "from_the_text": "Adult female CD-1 mice (n=120 weight, 27-37 g) were used for all of the animal studies performed. A total of 51 animals were used for the long-term stimulation studies that included four groups. Animals with SCI were randomly divided into three groups: a-tsDCS-treated group (n=16), a c-tsDCS-treated group (n=15), and a sham-treated group (n=10), and a non-injured control group (n=10). Subgroups of these animals were also used to study long-term changes in expression for KCC2, pKCC2, NKCC1, and pNKCC1. Injured animals with spasticity were used to test the immediate effect of tsDCS on rate-dependent depression (RDD) (n=6), while the relatively short-term effects of tsDCS on the expression of NKCC1 and pNKCC1 were studied in non-injured animals (n=10). Pharmacological studies involving bumetanide (NKCC1 blocker) were conducted with SCI animals (n=9) and non-injured control animals (n=3). Meanwhile, qPCR studies were conducted with non-injured control animals (n=41). All of the study protocols were approved by the College of Staten Island IACUC committee. […]"}, "[2]": {"system": "animals with spasticity following SCI", "assay": "Stretch-apparatus test of spasticity (muscle resistance, EMG) in mice with SCI after bumetanide injection", "type": "in vivo, CD-1 mice", "from_the_text": "Adult female CD-1 mice (n=120 weight, 27-37 g) were used for all of the animal studies performed. A total of 51 animals were used for the long-term stimulation studies that included four groups. Animals with SCI were randomly divided into three groups: a-tsDCS-treated group (n=16), a c-tsDCS-treated group (n=15), and a sham-treated group (n=10), and a non-injured control group (n=10). Subgroups of these animals were also used to study long-term changes in expression for KCC2, pKCC2, NKCC1, and pNKCC1. Injured animals with spasticity were used to test the immediate effect of tsDCS on rate-dependent depression (RDD) (n=6), while the relatively short-term effects of tsDCS on the expression of NKCC1 and pNKCC1 were studied in non-injured animals (n=10). Pharmacological studies involving bumetanide (NKCC1 blocker) were conducted with SCI animals (n=9) and non-injured control animals (n=3). Meanwhile, qPCR studies were conducted with non-injured control animals (n=41). All of the study protocols were approved by the College of Staten Island IACUC committee.\nFollowing administration of a ketamine/xylazine cocktail (90/10 mg/kg, i.p.) to achieve deep anesthesia, a laminectomy at thoracic T10 vertebra was performed to expose the T13 spinal segment. An infinite horizon (IH) spinal cord impactor (IH-0400, Precision Systems & Instrumentation, VA, USA) was used to induce a contusive SCI force. The impact force level was 60 kdyn and was selected based on data collected from exploratory experiments that were conducted with this impactor. In these preliminary studies, contusion injuries were induced with increasing impact forces in order to optimize the SCI contusion force needed to produce spastic mice. Mice impacted at 60 kdyn produced ideal spastic behavior at approximately 2-3 weeks post-injury. Impact was applied by using a standard mouse tip (diameter=1.3 mm). Following the contusion procedure, overlying muscles and skin were sutured and the surgical site was covered with a layer of gentamicin sulfate ointment to prevent infection. Each mouse subsequently received a number and then was placed on a warming pad (30° C.) for recovery.\nA computer-controlled stretch device was assembled in our laboratory from a stepper motor (DMX-UMD-23m, ARCUS Technology Inc., CA. USA), a foot presser mounted on a force-displacement transducer (FT03, GRASS Technologies/NATUS, CA, USA) connected to a bridge amplifier (ADInstruments, Colorado Springs, CO, USA), and a mouse holder (FIG. 1). The transducer was permanently fixed to a linear rail-guided carriage (SGB15NUU, ZNT Automatic Technology Co, Zhejiang, China). The rotational movement of the stepper motor is converted into linear displacement at the carriage by using a set of jointed flat-aluminum rods that are connected with swivel hub bearings. Two computer software programs were utilized to control the stepper motor and to perform the online (during) stretch and electromyogram (EMG) recordings. First, a stepper motor control software (DMX-UMD GUI, ARCUS Technology Inc.) was re-written to permit the execution of three consecutively timed stretches, with each stretch separated by two 10-s recovery intervals. The stepper motor was also programmed to provide three different stretch speeds: 18/s, 180/s, and 1800/s, which correspond to 3 RPM, 30 RPM, and 300 RPM, respectively. The second software package used was LabChart-7 bundled with PowerLab data acquisition system software (ADInstruments) which was used to gather and analyze data.\nA mouse restraining system was fabricated in our laboratory (FIG. 1) from three components. 1) A clear Plexiglas acrylic tube served as the mouse holding chamber. 2) An internally adjustable support system made of a clear acrylic concave stabilization plate. The location of the plate was able to be adjusted linearly along the length of the chamber via a handle that protruded through a cutout that ran the entire length of the tube. […]"}, "[3]": {"conditions": "60 mg/kg, 5, 20, 30 and 45 min after injection vs baseline, p<0.001"}}, "data": [{"smiles": "CCCCNc1cc(C(=O)O)cc(S(N)(=O)=O)c1Oc1ccccc1", "note": "[bumetanide]", "values": [{"measurement": "animals exhibiting a reduced reflexive stretch response", "setting": "[1]; 60 mg/kg, non-injured control animals", "value": 21, "unit": "%"}, {"measurement": "reduction in reflexive muscle resistance in controls", "setting": "[1]; after bumetanide injection, controls", "value": 21, "unit": "°/0"}, {"measurement": "reductions in spasticity", "setting": "[2]; 30 mg/kg, one hour after administration, n=5, data not shown", "value": "moderate reductions in spasticity"}, {"measurement": "corresponding EMG", "setting": "[2]; [3]", "value": "significant reduction"}, {"measurement": "reduction in peak resistance (reflexive muscle resistance)", "setting": "[2]; [3]", "value": 34, "unit": "%"}, {"measurement": "background activity and resting muscle tone on slow stretches", "setting": "[2]; 60 mg/kg, thirty min after injection", "value": "reduce background activity and resting muscle tone"}, {"measurement": "spasticity following bumetanide treatment", "setting": "[2]; SCI mice, dose not given", "value": "spasticity was reduced"}, {"measurement": "muscle resistance and concurrent EMG at low speed and high speed (FIG. 9)", "setting": "[2]; following bumetanide injection, n=9 mice, vs baseline 2", "value": "decreases in muscle resistance and concurrent EMG"}]}]}
